EP3345917A1, “ANTIPROTOZOAL COMPOUNDS” (Bacoba AG, priority 2017, dated 2018)
Non-standard residues stand in square brackets, D forms with d. Residues, ends and D or L forms follow the SMILES beside them. *: point of attachment. Hexenoyl(2E,4S-Me) = CC[C@H](C)/C=C/C(=O)*; Leu(3R-OH) = CC(C)[C@@H](O)[C@H](N)C(=O)O; NH((S)CH(Me)CH2NMe2) = C[C@@H](CN(C)C)N*; Pro(4S-Me) = C[C@@H]1CN[C@H](C(=O)O)C1; Gly(octyl) = CCCCCCCC[C@H](N)C(=O)O; Benzoyl(4-F) = O=C(c1ccc(F)cc1)*; hCha = N[C@@H](CCC1CCCCC1)C(=O)O; X17 = C[C@@H](CN1CCOCC1)N*; Aib = CC(C)(N)C(=O)O; βAla = NCCC(=O)O

Legend:
Plasmodium falciparum = experiment: 3H-hypoxanthine incorporation assay against Plasmodium falciparum; format: cell-based; settings: In vitro inhibition, read-out: P.falc NF5
Description: (§1) Tests were done in triplicate.
IC50 values were calculated by linear interpolation.

[1] = test system: Trypanosoma brucei rhodesiense (STIB 900 strain); experiment: Alamar Blue assay against Trypanosoma brucei rhodesiense grown in axenic medium; format: cell-based; settings: In vitro inhibition, read-out: T.b.rhod.
Method in brief: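 T. b. rhodesiense STIB 900 cultured in axenic medium and exposed to samples in an Alamar Blue viability assay, run in triplicate. IC50 calculated from the readout; melarsoprol served as reference drug.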

[2] = Cytotoxicity assay on L6-cells (Alamar Blue); settings: rat, Cytotox L6, Cytotoxicity against rat myoblast cells (L6)
[3] = test system: Axenically grown Leishmania donovani amastigotes (strain MHOM/ET/67/L82); experiment: Axenic Leishmania donovani amastigote resazurin assay; format: cell-based; settings: In vitro inhibition, read-out: L.don. ax
Method in brief: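 Strain MHOM/ET/67/L82 amastigotes grown axenically and tested in triplicate by resazurin assay. Plates developed 2-4 hours, fluorescence read at 536 nm excitation/588 nm emission and expressed as percentage of negative control.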

[4] = test system: intracellular Leishmania donovani (L.don. InMac); experiment: Intracellular Leishmania donovani assay (L.don. InMac); format: cell-based; settings: In vitro inhibition
Description: as §1

[5] = test system: Trypanosoma cruzi trypomastigote forms (Tulahuen strain); experiment: Intracellular Trypanosoma cruzi assay in L6-cells, beta-galactosidase/CPRG readout; format: cell-based; settings: In vitro inhibition, read-out: T.cruzi.
Method in brief: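 L6 rat myoblasts infected with Tulahuen C2C4 LacZ T. cruzi; after incubation, CPRG/Nonidet substrate added and colour developed 2–6 h. Absorbance at 540 nm; IC50 calculated; triplicate tests.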

Structure (SMILES) | IC50 (Plasmodium falciparum) | IC50 [1] | IC50 at 70 h [2] | IC50 [3] | IC50 [4] | IC50 [5]
CCCCCCCC[C@H](NC(=O)[C@@H]1CCCN1C(=O)/C=C/[C@@H](C)CC)C(=O)N[C@H](C(=O)NC(C)(C)C(=O)N[C@@H](CC(C)C)C(=O)N[C@@H](CC(C)C)C(=O)NC(C)(C)C(=O)NC(C)(C)C(=O)NCCC(=O)N[C@@H](C)CN(C)C)[C@H](O)C(C)C [Compound 5488, (2S)-N-[(1S,2R)-1-[(1-{[(1S)-1-{[(1S)-1-{[1-({1-[(2-{[(2S)-1-(dimethylamino)propan-2-yl]carbamoyl}ethyl)carbamoyl]-1-methylethyl}carbamoyl)-1-methylethyl]carbamoyl}-3-methylbutyl]carbamoyl}-3-methylbutyl]carbamoyl}-1-methylethyl)carbamoyl]-2-hydroxy-3-methylbutyl]-2-{[(2S)-1-[(2E,4S)-4-methylhex-2-enoyl]pyrrolidin-2-yl]formamido}decanamide] ({Hexenoyl(2E,4S-Me)}-P[Gly(octyl)][Leu(3R-OH)][Aib]LL[Aib][Aib][βAla]-{NH((S)CH(Me)CH2NMe2)}) | 2.6 nM | 2 nM | 666 nM | 0.6 nM | 20.2 nM | 33.6 nM
CCCCCCCC[C@H](NC(=O)[C@@H]1C[C@H](C)CN1C(=O)/C=C/[C@@H](C)CC)C(=O)N[C@H](C(=O)NC(C)(C)C(=O)N[C@@H](CC(C)C)C(=O)N[C@@H](CC(C)C)C(=O)NC(C)(C)C(=O)NC(C)(C)C(=O)NCCC(=O)N[C@@H](C)CN(C)C)[C@H](O)C(C)C [Compound 5492, (2S)-N-[(1S,2R)-1-[(1-{[(1S)-1-{[(1S)-1-{[1-({1-[(2-{[(2S)-1-(dimethylamino)propan-2-yl]carbamoyl}ethyl)carbamoyl]-1-methylethyl}carbamoyl)-1-methylethyl]carbamoyl}-3-methylbutyl]carbamoyl}-3-methylbutyl]carbamoyl}-1-methylethyl)carbamoyl]-2-hydroxy-3-methylbutyl]-2-{[(2S,4S)-4-methyl-1-[(2E,4S)-4-methylhex-2-enoyl]pyrrolidin-2-yl]formamido}decanamide] ({Hexenoyl(2E,4S-Me)}-[Pro(4S-Me)][Gly(octyl)][Leu(3R-OH)][Aib]LL[Aib][Aib][βAla]-{NH((S)CH(Me)CH2NMe2)}) | 4.7 nM | 5.5 nM | 147 nM | 2 nM | 36.6 nM | 113 nM
CC(C)C[C@H](NC(=O)[C@H](CCC1CCCCC1)NC(=O)[C@@H]1CCCN1C(=O)c1ccc(F)cc1)C(=O)NC(C)(C)C(=O)N[C@@H](CC(C)C)C(=O)N[C@@H](CC(C)C)C(=O)NC(C)(C)C(=O)NC(C)(C)C(=O)NCCC(=O)N[C@@H](C)CN1CCOCC1 [Compound 6028, (2S)-2-[(2S)-2-{2-[(2S)-2-[(2S)-4-cyclohexyl-2-{[(2S)-1-(4-fluorobenzoyl)pyrrolidin-2-yl]formamido}butanamido]-4-methylpentanamido]-2-methylpropanamido}-4-methylpentanamido]-4-methyl-N-[1-methyl-1-({1-methyl-1-[(2-{[(2S)-1-(morpholin-4-yl)propan-2-yl]carbamoyl}ethyl)carbamoyl]ethyl}carbamoyl)ethyl]pentanamide] ({Benzoyl(4-F)}-P[hCha]L[Aib]LL[Aib][Aib][βAla]-X17) | 26.3 nM | 41900 nM | – | 12500 nM | 418 nM | 230 nM
